Patent publication US9650340B2, “5-fluoro-N-(pyridin-2-yl)pyridin-2-amine derivatives containing a sulfoximine group” (BAYER PHARMA AKTIENGESELLSCHAFT, priority 2012, dated 2017)

What was measured:
CDK9/CycT1 = target: T1, CDK9/CycT1 (Homo sapiens, UniProt P50750); experiment: CDK9/CycT1 high ATP kinase assay (TR-FRET, 2 mM ATP); format: biochemical; conditions: Method 1b
T1 construct: Recombinant full-length His-tagged human CDK9 and CycT1; His; purchased Invitrogen PV4131; host or cells: insect cells
T1 sequence (P50750 whole entry): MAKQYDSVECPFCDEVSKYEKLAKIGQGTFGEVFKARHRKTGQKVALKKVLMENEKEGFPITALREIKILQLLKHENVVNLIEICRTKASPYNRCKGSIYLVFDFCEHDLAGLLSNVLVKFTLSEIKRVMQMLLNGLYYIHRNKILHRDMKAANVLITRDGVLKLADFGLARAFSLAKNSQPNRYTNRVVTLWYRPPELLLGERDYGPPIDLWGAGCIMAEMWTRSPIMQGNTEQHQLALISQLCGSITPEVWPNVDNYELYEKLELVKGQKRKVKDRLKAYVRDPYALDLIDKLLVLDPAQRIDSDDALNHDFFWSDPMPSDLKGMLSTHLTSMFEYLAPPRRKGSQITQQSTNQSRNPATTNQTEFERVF
T1 sequence (O60563 whole entry partner): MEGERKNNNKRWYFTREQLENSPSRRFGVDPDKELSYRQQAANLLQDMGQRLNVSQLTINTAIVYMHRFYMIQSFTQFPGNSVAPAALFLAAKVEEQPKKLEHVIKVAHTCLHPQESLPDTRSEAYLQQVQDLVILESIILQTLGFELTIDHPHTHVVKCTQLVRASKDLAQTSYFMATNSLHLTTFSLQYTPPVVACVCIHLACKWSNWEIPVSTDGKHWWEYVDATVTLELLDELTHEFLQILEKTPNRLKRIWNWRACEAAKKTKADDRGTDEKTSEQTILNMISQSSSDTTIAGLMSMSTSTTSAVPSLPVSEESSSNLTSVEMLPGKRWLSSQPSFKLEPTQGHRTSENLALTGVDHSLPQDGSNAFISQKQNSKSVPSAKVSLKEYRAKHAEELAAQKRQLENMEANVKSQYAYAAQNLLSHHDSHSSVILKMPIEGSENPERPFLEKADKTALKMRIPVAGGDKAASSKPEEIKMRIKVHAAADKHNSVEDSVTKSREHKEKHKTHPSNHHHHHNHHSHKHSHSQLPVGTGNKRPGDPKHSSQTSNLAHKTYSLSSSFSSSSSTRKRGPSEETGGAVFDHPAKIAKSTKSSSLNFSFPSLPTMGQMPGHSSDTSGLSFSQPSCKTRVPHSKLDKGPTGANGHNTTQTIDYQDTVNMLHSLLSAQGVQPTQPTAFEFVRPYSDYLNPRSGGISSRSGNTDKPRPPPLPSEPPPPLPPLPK
Description: 1b. CDK9/CyeT1 High ATP Kinase Assay
CDK9/CycT1-inhibitory activity of compounds of the present invention at a high ATP concentration after preincubation of enzyme and test compounds was quantified employing the CDK9/CycT1 TR-FRET assay as described in the following paragraphs.
Recombinant full-length His-tagged human CDK9 and CycT1, expressed in insect cells and purified by Ni-NTA affinity chromatography, were purchase from Invitrogen (Cat. No PV4131). As substrate for the kinase reaction biotinylated peptide biotin-Ttds-[…] (C-terminus in amid form) was used which can be purchased e.g. form the company JERINI peptide technologies (Berlin, Germany). For the assay 50 nl of a 100 fold concentrated solution of the test compound in DMSO was pipetted into a black low volume 384 well microtiter plate (Greiner Bio-One, Frickenhausen, Germany), 2 μl of a solution of CDK9/CycT1 in aqueous assay buffer [50 mM Tris/HCl pH 8.0, 10 mM MgCl2, 1.0 mM dithiothreitol, 0.1 mM sodium ortho-vanadate, 0.01% (v/v) Nonidet-P40 (Sigma)] were added and the mixture was incubated for 15 min at 22° C. to allow pre-binding of the test compounds to the enzyme before the start of the kinase reaction. Then the kinase reaction was started by the addition of 3 μl of a solution of adenosine-tri-phosphate (ATP, 3.3 mM=>final conc. in the 5 μl assay volume is 2 mM) and substrate (1.67 μM=>final conc. in the 5 μl assay volume is 1 μM) in assay buffer and the resulting mixture was incubated for a reaction time of 25 min at 22° C.
(§1) The resulting mixture was incubated 1 h at 22° C. to allow the formation of complex between the phosphorylated biotinylated peptide and the detection reagents. Subsequently the amount of phosphorylated substrate was evaluated by measurement of the resonance energy transfer from the Eu-chelate to the streptavidine-XL. Therefore, the fluorescence emissions at 620 nm and 665 nm after excitation at 350 nm was measured in a HTRF reader, e.g. a Rubystar (BMG Labtechnologies, Offenburg, Germany) or a Viewlux (Perkin-Elmer). The ratio of the emissions at 665 nm and at 622 nm was taken as the measure for the amount of phosphorylated substrate.

CDK2/CycE = target: T2, CDK2/CycE (Homo sapiens, UniProt P24941); experiment: CDK2/CycE kinase assay (TR-FRET, 10 μM ATP); format: biochemical; conditions: Method 2 (2a)
T2 construct: GST; purchased ProQinase GmbH (Freiburg, Germany); host or cells: insect cells (Sf9)
Text: 2a. CDK2/CycE Kinase Assay:
CDK2/CycE-inhibitory activity of compounds of the present invention was quantified employing the CDK2/CycE TR-FRET assay as described in the following paragraphs:
Recombinant fusion proteins of GST and human CDK2 and of GST and human CycE, expressed in insect cells (Sf9) and purified by Glutathion-Sepharose affinity chromatography, were purchased from ProQinase GmbH (Freiburg, Germany). As substrate for the kinase reaction biotinylated peptide biotin-Ttds-[…] (C-terminus in amid form) was used which can be purchased e.g. form the company JERINI Peptide Technologies (Berlin, Germany).
For the assay 50 nl of a 100 fold concentrated solution of the test compound in DMSO was pipetted into a black low volume 384 well microtiter plate (Greiner Bio-One, Frickenhausen, Germany), 2 μl of a solution of CDK2/CycE in aqueous assay buffer [50 mM Tris/HCl pH 8.0, 10 mM MgCl2, 1.0 mM dithiothreitol, 0.1 mM sodium ortho-vanadate, 0.01% (v/v) Nonidet-P40 (Sigma)] were added and the mixture was incubated for 15 min at 22° C. to allow pre-binding of the test compounds to the enzyme before the start of the kinase reaction. Then the kinase reaction was started by the addition of 3 μl of a solution of adenosine-tri-phosphate (ATP, 16.7 μM=>final conc. in the 5 μl assay volume is 10 μM) and substrate (1.25 μM=>final conc. in the 5 μl assay volume is 0.75 μM) in assay buffer and the resulting mixture was incubated for a reaction time of 25 min at 22° C. The concentration of CDK2/CycE was adjusted depending of the activity of the enzyme lot and was chosen appropriate to have the assay in the linear range, typical concentrations were in the range of 130 ng/mL The reaction was stopped by the addition of 5 μl of a solution of TR-FRET detection reagents (0.2 μM streptavidine-XL665 [Cisbio Bioassays, Codolet, France] and 1 nM anti-RB(pSer807/pSer811)-antibody from BD Pharmingen [#558389] and 1.2 nM LANCE EU-W1024 labeled anti-mouse IgG antibody [Perkin-Elmer, product no. AD0077]) in an aqueous EDTA-solution (100 mM EDTA, 0.2% (w/v) bovine serum albumin in 100 mM HEPES/NaOH pH 7.0).
as §1, with “TR-FRET” for “HTRF”

| Compound | IC50 (CDK9/CycT1) [µM] | IC50 (CDK2/CycE) [µM] |
| --- | --- | --- |
| CCOc1cc(F)ccc1-c1cc(Nc2cc(CS(C)(=N)=O)cc(F)n2)ncc1F (racemic) [Example 26, (rac)-4-(2-Ethoxy-4-fluorophenyl)-5-fluoro-N-{6-fluoro-4-[(S-methylsulfonimidoyl)methyl]pyridin-2-yl}pyridin-2-amine] | 0.004 | 0.11 |
| CCOc1cc(F)ccc1-c1cc(Nc2cc(CS(C)(=O)=NC(=O)C(F)(F)F)cc(F)n2)ncc1F (racemic) [Example 27, (rac)-N-{[(2-{[4-(2-Ethoxy-4-fluoro-phenyl)-5-fluoropyridin-2-yl]amino}-6-fluoropyridin-4-yl)methyl]-(methyl)oxido-λ^6-sulfanylidene}-2,2,2-trifluoroacetamide] | 0.022 | 1.2 |
| CCS(=N)(=O)Cc1ccnc(Nc2cc(-c3ccc(F)cc3OC)c(F)cn2)c1 (racemic) [Example 30, (rac)-N-{4-[(S-Ethylsulfonimidoyl)-methyl]pyridin-2-yl}-5-fluoro-4-(4-fluoro-2-methoxyphenyl)pyridin-2-amine] | 0.005 | 0.21 |
| COc1cc(F)ccc1-c1cc(Nc2cc(CS(C)(=N)=O)cc(C(F)F)n2)ncc1F (racemic) [Example 31, (rac)-N-{6-(Difluoromethyl)-4-[(S-methylsulfonimidoyl)methyl]pyridin-2-yl}-5-fluoro-4-(4-fluoro-2-methoxyphenyl)pyridin-2-amine] | 0.001 | 0.01 |
| COc1cc(F)ccc1-c1cc(Nc2cc(CS(C)(=O)=NC#N)ccn2)ncc1F (single isomer, unassigned) [Example 10, {[(2-{[5-Fluoro-4-(4-fluoro-2-methoxyphenyl)pyridin-2-yl]amino}pyridin-4-yl)methyl](methyl)oxido-λ^6-sulfanylidene}cyanamide] | 0.001 | 0.072 |
| COc1cc(F)ccc1-c1cc(Nc2cc(CS(C)(=N)=O)cc(F)n2)ncc1F (single isomer, unassigned; (+)) [Example 19, (+)-5-Fluoro-4-(4-fluoro-2-methoxyphenyl)-N-{6-fluoro-4-[(S-methylsulfonimidoyl)methyl]pyridin-2-yl}pyridin-2-amine] | 0.019 | 0.094 |
| COc1cc(F)ccc1-c1cc(Nc2cc(CS(C)(=N)=O)cc(C(F)(F)F)n2)ncc1F (single isomer, unassigned; (+)) [Example 22, (+)-5-Fluoro-4-(4-fluoro-2-methoxyphenyl)-N-{4-[(S-methylsulfonimidoyl)methyl]-6-(trifluoromethyl)pyridin-2-yl}pyridin-2-amine] | 0.001 | 0.018 |
| COc1cc(F)ccc1-c1cc(Nc2cc(CS(C)(=O)=NC(=O)C(F)(F)F)cc(C(F)(F)F)n2)ncc1F (single isomer, unassigned; (+)) [Example 24, (+)-2,2,2-Trifluoro-N-[{[2-{[5-fluoro-4-(4-fluoro-2-methoxyphenyl)pyridin-2-yl]amino}-6-(trifluoromethyl)-pyridin-4-yl]methyl}(methyl)oxido-λ^6-sulfanylidene]acetamide] | 0.027 | 0.25 |
| CCOc1cc(F)ccc1-c1cc(Nc2cc(CS(C)(=N)=O)cc(F)n2)ncc1F (single isomer, unassigned; (+)) [Example 28, (+)-4-(2-Ethoxy-4-fluorophenyl)-5-fluoro-N-{6-fluoro-4-[(S-methylsulfonimidoyl)methyl]pyridin-2-yl}pyridin-2-amine] | 0.004 | 0.12 |
| COc1cc(F)ccc1-c1cc(Nc2cc(CS(C)(=N)=O)cc(C)n2)ncc1F (single isomer, unassigned; (+)) [Example 32, (+)-5-Fluoro-4-(4-fluoro-2-methoxyphenyl)-N-{6-methyl-4-[(S-methylsulfonimidoyl)methyl]pyridin-2-yl}pyridin-2-amine] | 0.002 | 0.12 |
| COc1cc(F)ccc1-c1cc(Nc2cc(CS(C)(=N)=O)cc(F)n2)ncc1F (single isomer, unassigned; (-)) [Example 20, (−)-5-Fluoro-4-(4-fluoro-2-methoxyphenyl)-N-{6-fluoro-4-[(S-methylsulfonimidoyl)methyl]pyridin-2-yl}pyridin-2-amine] | 0.001 | 0.072 |
| COc1cc(F)ccc1-c1cc(Nc2cc(CS(C)(=N)=O)cc(C(F)(F)F)n2)ncc1F (single isomer, unassigned; (-)) [Example 23, (−)-5-Fluoro-4-(4-fluoro-2-methoxyphenyl)-N-{4-[(S-methylsulfonimidoyl)methyl]-6-(trifluoromethyl)pyridin-2-yl}pyridin-2-amine] | 0.002 | 0.022 |
| COc1cc(F)ccc1-c1cc(Nc2cc(CS(C)(=O)=NC(=O)C(F)(F)F)cc(C(F)(F)F)n2)ncc1F (single isomer, unassigned; (-)) [Example 25, (−)-2,2,2-Trifluoro-N-[{[2-{[5-fluoro-4-(4-fluoro-2-methoxyphenyl)pyridin-2-yl]amino}-6-(trifluoromethyl)-pyridin-4-yl]methyl}(methyl)oxido-λ^6-sulfanylidene]acetamide] | 0.013 | 0.11 |
| CCOc1cc(F)ccc1-c1cc(Nc2cc(CS(C)(=N)=O)cc(F)n2)ncc1F (single isomer, unassigned; (-)) [Example 29, (−)-4-(2-Ethoxy-4-fluorophenyl)-5-fluoro-N-{6-fluoro-4-[(S-methylsulfonimidoyl)methyl]pyridin-2-yl}pyridin-2-amine] | 0.004 | 0.098 |
| COc1cc(F)ccc1-c1cc(Nc2cc(CS(C)(=N)=O)cc(C)n2)ncc1F (single isomer, unassigned; (-)) [Example 33, (−)-5-Fluoro-4-(4-fluoro-2-methoxyphenyl)-N-{6-methyl-4-[(S-methylsulfonimidoyl)methyl]pyridin-2-yl}pyridin-2-amine] | 0.001 | 0.067 |
